“And” between values parts separate entries of the source, which are not always exact repeats. Equal entries are not always repeated.
How the values were obtained:
[1] = Phase 2 open-label efficacy and safety study in VHL disease associated RCC; type: in vivo, human; conditions: 120 mg QD, 61 participants with VHL disease associated RCC
Text: A Phase 2, open-label efficacy and safety study in participants with VHL disease associated RCC is ongoing. As of 6 Sep.

advanced RCC = test: FIH Phase 1 study, best response by RECIST v1.1 in previously treated advanced RCC; type: in vivo, human; conditions: 120 mg QD, 55 participants with previously treated advanced RCC
Description: A FIH Phase 1 study designed to assess the tolerability, safety, PK, and PD properties of MK-6482 in participants with various advanced solid tumors is ongoing. As of 6 Sep. 2019 a total of 104 participants had been enrolled, including 43 participants with various advanced solid tumors in the dose-escalation portion (Part 1A) ranging from 20 to 240 mg QD and 120 mg BID. The MTD was not reached and 2 treatment-related DLTs were observed: 1 Grade 4 event of thrombocytopenia in the 240 mg QD cohort, and 1 Grade 3 event of hypoxia in the 120 mg BID cohort. The 120 mg QD dose was selected for further clinical development based on favorable PK, pharmacodynamic, and safety findings. 52 additional participants with advanced RCC were treated in an expansion cohort (Part 1B) at the clinical dose of 120 mg QD. […] In total, 55 participants with previously treated advanced RCC have been treated in this study with MK-6482 at 120 mg QD (3 patients in the dose-escalation portion of the study and 52 participants in the dose expansion portion of the study). Best response among these 55 participants included 11 participants (20%) with PR and 32 participants (58%) with SD as assessed by RECIST v1.1.

[2] = FIH Phase 1 study of tolerability, safety, PK of MK-6482 in participants with advanced solid tumors; type: in vivo, human
Description: As of 6 Sep. […] 52 additional participants with advanced RCC were treated in an expansion cohort (Part 1B) at the clinical dose of 120 mg QD.

[3] = Phase 1 cross-over study of the effect of food on the PK of MK-6482 in healthy volunteers; type: in vivo, human; conditions: single dose 120 mg, healthy female adult volunteers
[4] = tested on: UMRC2 human VHL-deficient renal cell carcinoma xenograft; test: VHL-deficient renal cell carcinoma xenograft tumor model; type: in vivo; conditions: for anti-tumor activity compared to the vehicle control group: Day 34, one-way ANOVA with Tukey's multiple comparisons; for Final CRs: complete tumor regressions at end of study; for Final CRs / Final PRs: 10 mice per group; for Final PRs: partial tumor regressions at end of study; for TGI: respective to Vehicle-treated animals at Day 34, MK-6482 3 mg/kg BID oral, Lenvatinib 10 mg/kg QD oral
Description: Prior to treatment initiation, female SCID Beige mice aged 7 weeks weighing between 18 to 21 grams were anesthetized and inoculated subcutaneously on the rear flank with single cell suspension of approximately 95% viable log-phase sub-confluent UMRC2 (5.0×10^6) cells in 0.1 mL of serum-free Dulbecco's Modified Eagle Medium (DMEM) to initiate tumor development. Treatment was initiated when the mean tumor volume of inoculated animals reached approximately 205 mm^3. Mice were pair-matched into 4 treatment groups consisting of 10 mice per group. Treatment groups consisted of: 1) 0.5% methylcellulose+0.5% Tween 80 (Vehicle); 2) MK-6482; 3) Lenvatinib; 4) MK-6482+Lenvatinib. Vehicle and MK-6482 were orally gavage-dosed twice daily (BID) at 3 mg/kg body weight. Lenvatinib was orally dosed once daily (QD) at 10 mg/kg body weight. Treatment began on Day 0 and completed on Day 34. —Caliper measurements of tumors and body weights were captured twice weekly. Statistical analysis was performed by one-way ANOVA with Tukey's multiple comparisons tests at the end of the study, Day 34.
CRs were defined as no observable tumor whereas PRs were tumors whose volume was lower than the original tumor size when treatment began.

[5] = combined dose escalation and expansion cohorts

Row | SMILES | most common AE of ≥Grade 3 toxicity (fatigue), share of participants [1] [%] | best response PR, number of participants (advanced RCC) [participants] | best response PR, share of participants (advanced RCC) [%] | best response SD, number of participants (advanced RCC) [participants] | best response SD, share of participants (advanced RCC) [%] | accumulation from Day 1 to Day 15 ([2]; 120 mg QD expansion cohort (Part 1B)) [fold] | treatment-related DLTs observed (number) ([2]; 1 Grade 4 thrombocytopenia in 240 mg QD cohort, 1 Grade 3 hypoxia in 120 mg BID cohort) | most common AEs (anemia, fatigue, dyspnea, nausea, peripheral edema), share of participants [2, 5] [%] | most common Grade 3 AEs (anemia and hypoxia), share of participants [2, 5] [%] | MTD ([2]; dose escalation (Part 1A) 20 to 240 mg QD and 120 mg BID) | Cmax ([2]; human, in vivo, 120 mg QD expansion cohort (Part 1B), Day 15, read-out: mean steady state Cmax) | half-life ([2]; human, in vivo, 120 mg QD expansion cohort (Part 1B), Day 15, read-out: mean steady state t1/2 (converted)) [h] | delay of time to peak MK-6482 exposure, median difference (Fed—Fasted) [3] [h] | most common adverse event (headache), incidence [3] [%] | effect of high fat, high calorie meal on extent of MK-6482 exposure ([3]; fed vs fasted) | lowering of maximum plasma MK-6482 concentration by high fat, high calorie meal ([3]; fed vs fasted) | anti-tumor activity compared to the vehicle control group [4] | Final CRs [4] | Final PRs [4] | TGI [4] [%]
1 | CS(=O)(=O)c1ccc(Oc2cc(F)cc(C#N)c2)c2c1[C@H](O)[C@H](F)[C@@H]2F [MK-6482, 3-[(1S,2S,3R)-2,3-difluoro-1-hydroxy-7-methylsulfonyl-indan-4-yl]oxy-5-fluoro-benzonitrile] | ≥ 5 | 11 | 20 | 32 | 58 | 1.5 | 2 | ≥ 20 | ≥ 5 | not reached | 1790 ng/mL and 4.67 µM | 15.4 | 2 | 12.5 | did not affect | approximately 35% | significant anti-tumor activity | 0/10 | 1/10 | 51
2 | COc1cc2nccc(Oc3ccc(NC(=O)NC4CC4)c(Cl)c3)c2cc1C(N)=O [Lenvatinib, 4-[3-chloro-4-(cyclopropylaminocarbonyl)aminophenoxy]-7-methoxy-6-quinolinecarboxamide] | – | – | – | – | – | – | – | – | – | – | – | – | – | – | – | – | significant anti-tumor activity | 0/10 PRs, 0/10 CRs | 0/10 PRs, 0/10 CRs | 83

Source: patent US20230210838A1, “METHODS FOR TREATING CANCER OR VON-HIPPEL LINDAU DISEASE USING A COMBINATION OF A HIF-2 ALPHA INHIBITOR AND LENVATINIB” (Merck Sharp & Dohme LLC, priority 2020, published 2023)
